Results reported in PubChem BioAssay (NCI).
Where “and” joins values, the source holds several entries; their conditions need not be identical. Identical values can stand only once.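 Each compound was tested at five concentrations against cells in 96-well plates for 48 hours. Here, GI50 denotes the concentration required for 50% inhibition of growth. TGI is the concentration that stops growth completely.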

How the values were obtained:
Test in all cases: NCI tumour cell line growth inhibition, 48 h
HCC-2998 colon = tested on: HCC-2998 colon
UACC-257 melanoma = tested on: UACC-257 melanoma
SW-620 colon = tested on: SW-620 colon
MCF7 breast = tested on: MCF7 breast
SR leukemia = tested on: SR leukemia
786-0 renal = tested on: 786-0 renal
ACHN renal = tested on: ACHN renal
HOP-62 NSCLC = tested on: HOP-62 NSCLC
UO-31 renal = tested on: UO-31 renal
NCI-H226 lung = tested on: NCI-H226 lung

Row | Structure (SMILES) | GI50 (HCC-2998 colon) | TGI (HCC-2998 colon) [µM] | GI50 (UACC-257 melanoma) [µM] | TGI (UACC-257 melanoma) [µM] | GI50 (SW-620 colon) | TGI (SW-620 colon) [µM] | GI50 (MCF7 breast) | TGI (MCF7 breast) [µM] | GI50 (SR leukemia) [µM] | GI50 (786-0 renal) [µM] | TGI (786-0 renal) [µM] | GI50 (ACHN renal) [µM] | TGI (ACHN renal) [µM] | GI50 (HOP-62 NSCLC) [µM] | TGI (HOP-62 NSCLC) [µM] | GI50 (UO-31 renal) [µM] | TGI (UO-31 renal) [µM] | GI50 (NCI-H226 lung) [µM] | TGI (NCI-H226 lung) [µM] | TGI (SR leukemia) [µM]
1 | Nc1no[n+]([O-])c1-c1nnc2c(n1)-c1ccccc1C2=O | 13 µM | 26.8 | 1.93 | 3.98 | 1.83 µM | 3.65 | 1.55 µM | 3.94 | 2.48 | 4.3 | 16.8 | 1.56 | 3.1 | 2.74 | 10 | 2.25 | 6.75 | 16.1 | 37.7 | 
2 | Cc1nn(-c2ccccc2)c2nc(C)n(-c3ccc(Br)cc3)c(=O)c12 | 1.61 µM | > 100 | 0.768 | > 100 | 0.353 µM | > 100 | 0.356 µM | > 100 | 0.439 | 0.542 | > 100 | 0.584 | > 100 | 0.678 | > 100 | 0.631 | 36.7 | 1.01 | > 100 | > 100
3 | CCC(C(=O)[C@@H](C)[C@@H](O)[C@H](C)[C@@H]1O[C@@H]([C@@H](CC)C(=O)ONC(=O)c2ccccc2)CC[C@@H]1C)[C@H]1O[C@]2(C=CC(=O)[C@]3(CC[C@@](C)([C@H]4CC[C@](O)(CC)[C@H](C)O4)O3)O2)[C@H](C)C[C@@H]1C (stereo not given in full) | 0.658 µM | 4.03 | 0.255 | 5.61 | 0.582 µM | 2.71 | 0.0869 µM | 1.62 | 0.0674 | 0.981 | 2.26 | 0.641 | 2.03 | 0.161 | 1.95 | 0.403 | 1.79 | 0.749 | 3.56 | 0.617
4 | Cc1ccc(NC2=CC(=O)C(=O)c3ccccc32)cc1 | 2.11 µM | 4.89 | 1.43 | 2.8 | 1.92 µM | 4.01 | 1.54 µM | 3.63 | 3.96 | 15 | > 100 | 1.92 | 5.33 | 1.8 | 4.33 | 1.17 | 3.79 | 1.92 | 4.46 | > 100
5 | Cn1cc(-c2nc(-c3cn(C)c4ncccc34)cs2)c2ccccc21 | 2.05 µM | > 100 | 3.61 | > 100 | 1.24 µM | > 100 | 0.372 µM | 17.5 | 0.703 | 2.68 | 13.7 | 3.67 | 79.4 | 2.01 | 11.5 | 4.93 | > 100 | 2.29 | 14.4 | > 100
6 | COc1ccc2nc3ccccc3c(NCc3ccccc3)c2c1 | 1.86 µM | 3.77 | 2.16 | 4.88 | 1.72 µM | 4.68 | 2.01 µM | 4.89 | 1.38 | 1.8 | 3.38 | 2.01 | 5.97 | 2.62 | 9.95 | 1.54 | 5.34 | 2.79 | 8.69 | 4.51
7 | CC1(C)CN(CCNc2nccc(-c3c(-c4cccc(O)c4)nc4sccn34)n2)S(=O)(=O)N1 | 19.5 µM | > 33.2 | 2.12 | > 33.2 | 15.7 µM | > 33.2 | 9.66 µM | > 33.2 | 3.34 | 11.2 | > 33.2 | 7.07 | > 33.2 | 32.7 | > 33.2 | 13.3 | > 33.2 | 10.4 | 32.4 | > 33.2
8 | Oc1ccc(/C=N/NC(=S)Nc2cccnc2)nc1 |  | > 100 |  | 76.9 |  | > 100 |  | > 39 |  |  | > 73.5 |  | 32.3 |  | > 100 |  | > 26.9 |  | > 100 | 0.807
9 | Cc1cn2c(/C=C3\C(=O)N(C)c4ccc(Cl)cc43)c(C)nc2s1 | 2.61 µM | 6.18 | 3.37 | 38.6 | 4.27 µM | > 100 | 7.01 µM | 55.5 | 0.226 | 4.92 | 21.7 | 4.62 | 32.6 | 5.6 | 72 | 7.18 | 67.1 | 18.5 | > 100 | 1.52
10 | C(=C\c1ccc(OCC2CO2)cc1)/C1=NCOC1 (stereo not given) | 7.43 µM | 22.6 | 6.15 | 26.6 | 6.1 µM | 22.5 | 4.65 µM | 46 | 3.05 | 17.6 | 53.4 | 5.47 | 19.5 | 26 | 65.3 | 3.64 | 12.8 | 16.4 | 34.5 | 11.9
11 | CCN(CC)CCCC(C)Nc1ccnc(/C=C/c2ccc(Cl)cc2)c1 (stereo not given) |  | 4.03 |  | 3.59 |  | 3.91 |  | 4.84 |  |  | 3.45 |  | 8.68 |  | 4.11 |  | 3.17 | 2.02 | 4.97 | > 27.2
12 | NCCCNc1nc2ccccc2c2c(=O)c3cc(F)cc(Cl)c3sc12 | 1.79 µM | 3.68 | 3.29 | 11.2 | 1.7 µM | 3.28 | 1.19 µM | 2.68 | 1.19 | 1.45 | 2.9 | 1.7 | 3.07 | 1.77 | 3.9 | 1.47 | 2.84 | 6.37 | 23.7 | 4.04
13 | NC(Cc1c[nH]c2cccc(F)c12)C(=O)O (stereo not given) | 73.2 µM and 694 µM | 2400 | 1380 | > 4500 | 47.7 µM and 279 µM | 1020 | 35.4 µM and 327 µM | 1650 |  | 124 | 894 | 679 | > 4500 |  | 3180 | 842 | > 4500 | 3210 | > 4500 | > 4500
14 | CC(=N/NC(N)=S)/C(C)=N/NC(N)=S |  | > 100 |  | > 100 |  | > 100 |  | > 100 |  |  | > 100 |  | > 100 |  | > 100 |  | > 100 |  | > 100 | > 100
15 | CCOC(=O)CCSC1=CC(=O)c2nc3ccccc3c3ccnc1c23 | 19.2 µM | 40.2 | 14.6 | 35.7 | 13.9 µM | 41.6 | 13.3 µM | 38.3 | 7.59 | 17.5 | 39.3 | 18.6 | 42.5 | 16.4 | 47.7 | 16.3 | 34.9 | 21.8 | 73.8 | > 100
16 | CCOC(=O)c1cc2c(n1Cc1cc(OC)cc(OC)c1)-c1oncc1CC2 | 0.411 µM | > 100 | 47 | > 100 | 0.0859 µM | > 100 | 0.0492 µM | > 100 | 0.0475 | 0.499 | > 100 | 2.22 | > 100 | 0.327 | > 100 | 6.37 | > 100 | 2.75 | > 100 | > 36.8
17 | C/C(=N\NC(=S)N1CCN(c2ccccn2)CC1)c1cccc2cccnc12 |  | > 58.9 |  | > 100 |  | > 100 |  | > 100 |  |  | > 100 |  | > 100 |  | > 100 |  | > 56.5 |  | 38.4 | > 38.7
18 | CC[Si](CC)(CC)OC1[C@@H](O[Si](CC)(CC)CC)[C@@H](CNC(=O)NC)O[C@H]1n1cnc2c(NC(=O)Nc3ccccc3)ncnc21 (stereo not given in full) | 3.22 µM | 16.2 | 2.81 | 55.8 | 4.1 µM | > 100 | 3.24 µM | 14.3 | 2.36 | 2.96 | 10.7 | 3.44 | > 100 | 16 | > 100 | 2.8 | 18.1 | 5.11 | > 100 | 5.2
19 | O=C(c1ccc(Nc2nccc(NCCCCNc3ccnc4cc(Cl)ccc34)n2)cc1)N1CCCCC1 | 1.91 µM | 5.42 | 1.75 | 3.34 | 0.589 µM | 2.17 | 1.83 µM | 7.64 | 0.219 | 1.46 | 2.82 | 3.32 | 11.3 | 2.24 | 6.02 | 1.69 | 3.79 | 3.59 | 13.7 | 1.5
20 | C[C@@H](Oc1cc(-c2cnn(C3CCNCC3)c2)cnc1N)c1c(Cl)cc(F)cc1Cl | 2.42 µM | 8.65 | 1.49 | 3.07 | 0.893 µM | 8.13 | 0.516 µM | 2.12 | 0.0497 | 2.13 | 4.84 | 2.61 | 12 | 2 | 9.52 | 3.16 | 13.2 | 2.25 | 9.87 | 1.52
21 | C=CCN1C(=O)[C@]2(SC1=S)[C@H](c1cccc(Cl)c1)CN(C)[C@]21C(=O)NC2C=CC(Cl)=C[C@H]21 (stereo not given in full) | 5.05 µM | 19.1 | 12.2 | 35.8 | 2.89 µM | 11.6 | 2.68 µM | 11.7 | 1.68 | 1.51 | 3.48 | 2.99 | 13.4 | 3.59 | 16.2 | 1.85 | 9.06 | 1.59 | 3.98 | 4.48
22 | Cc1cc(OCc2nn(CN3CCN(C)CC3)c(=S)n2/N=C/c2ccc(F)cc2)ccc1Cl | 18.8 µM | 33.1 | 19.2 | 36.7 | 18.7 µM | 35.7 | 18.4 µM | 34.4 | 13.3 | 18.7 | 34.1 | 20.1 | 34.3 | 18.7 | 34.4 | 17.6 | 32.9 | 17.7 | 33.6 | 29.7
23 | O=C(Nc1ccc(Cl)cc1)N1CCN(c2ccc3nncn3n2)CC1 | 81.8 µM | > 100 |  |  | 60.8 µM | > 100 | 35.3 µM | > 100 | 24.5 | > 100 | > 100 | 50.6 | > 100 | > 100 | > 100 | 24.9 | > 100 | 68.4 | > 100 | > 100
24 | CC(=O)O[C@H]1CC[C@]2(C)C3C(=O)C[C@]4(C)[C@@H](C(C)CCC(=O)O)CC[C@@]4(C)[C@@H]3CC[C@H]2C1(C)C (stereo not given in full) |  |  | 13.3 | 33.9 | 19.4 µM | > 50 | 20.7 µM | > 50 | 16.6 | 20.7 | > 50 | 10.7 | 35.4 | 27.2 | > 50 | 40.7 | > 50 | > 50 | > 50 | > 50
25 | Cc1cn(C2CC(O)C(COC(N)=O)O2)c(=O)[nH]c1=O (stereo not given) |  |  |  | > 100 |  | > 100 |  | > 100 |  |  | > 100 |  | > 100 |  | > 100 |  | > 100 |  | > 100 | > 100
26 | Cc1ccc2c(c1)C(O)(c1ccccc1)CCS2 (stereo not given) |  |  |  | > 100 |  | > 100 |  | > 100 |  |  | > 100 |  | 62.6 |  | > 100 |  | 48.7 |  | 82.4 | 40.3
27 | CC(=N\O)/C(C)=N/O.CC(=N\O)/C(C)=N/O.[Fe].[NH2-].c1c[nH]cn1 |  |  | > 100 | > 100 | > 100 µM | > 100 | > 100 µM | > 100 | > 100 | > 100 | > 100 | > 100 | > 100 | > 100 | > 100 | 1.43 | 4.34 | > 100 | > 100 | > 100
